This is an account of results in US12692254B2, “Benzimidazole inhibitors of PAD enzymes” (BRISTOL-MYERS SQUIBB COMPANY, priority 2018, dated 2026).

The structures appear in SMILES notation.

The target of the test is human PAD4 (hPAD4) (Homo sapiens, UniProt Q9UM07). As to the kind of experiment: RFMS human PAD4 functional assay (rapid-fire mass spectrum). Format: biochemical. The following applies: 5 nM hPAD4 enzyme, 250 μM BAEE, 50 μM Calcium; 30 min preincubation, 90 min reaction at 37° C. An outline of the steps: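 PAD4 (10 nM) preincubated 30 min with compound (top final 50 μM), then BAEE substrate added in pH 7.5 HEPES buffer with DTT, 50 μM calcium, TPEN; 90 min at 37° C. After TCA quench, citrulline derivatized with phenyl glyoxal (4 mM final, 30 min, 37° C) and quantified by RapidFire MS against internal standard.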
human PAD4 (hPAD4), sequence (Q9UM07 whole entry): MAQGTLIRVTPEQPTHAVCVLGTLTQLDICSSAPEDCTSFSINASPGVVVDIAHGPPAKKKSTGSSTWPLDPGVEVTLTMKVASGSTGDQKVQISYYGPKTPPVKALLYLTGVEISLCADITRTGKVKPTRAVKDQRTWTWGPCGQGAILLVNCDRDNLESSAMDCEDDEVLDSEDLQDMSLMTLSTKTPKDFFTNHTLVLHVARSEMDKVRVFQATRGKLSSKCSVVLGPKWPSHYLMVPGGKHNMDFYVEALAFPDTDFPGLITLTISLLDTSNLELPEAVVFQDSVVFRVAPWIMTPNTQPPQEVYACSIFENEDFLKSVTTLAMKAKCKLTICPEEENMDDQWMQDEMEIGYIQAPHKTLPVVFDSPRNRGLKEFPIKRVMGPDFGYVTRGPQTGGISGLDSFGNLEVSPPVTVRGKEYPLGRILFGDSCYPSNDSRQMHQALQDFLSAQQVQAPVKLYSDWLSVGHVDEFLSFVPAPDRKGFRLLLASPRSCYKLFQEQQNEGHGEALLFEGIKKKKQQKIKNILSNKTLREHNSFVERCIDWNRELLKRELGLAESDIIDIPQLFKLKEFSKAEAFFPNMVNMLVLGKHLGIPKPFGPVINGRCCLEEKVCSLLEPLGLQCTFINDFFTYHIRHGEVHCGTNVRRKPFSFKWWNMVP

By IC50 is commonly meant the point on the concentration scale where inhibition reaches its midpoint. As for `COc1cc(C(=O)N2C[C@H](N)C[C@@H](F)C2)cc2nc(-c3cc4cccnc4n3CC3CC3)n(Cc3cn[nH]c3)c12` [Example 500, (3R,5R)-1-{2-[1-(cyclopropylmethyl)-1H-pyrrolo[2,3-b]pyridin-2-yl]-7-methoxy-1-[(1H-pyrazol-4-yl)methyl]-1H-1,3-benzodiazole-5-carbonyl}-5-fluoropiperidin-3-amine], the IC50 came out at 127 nM. As for `COc1cc(C(=O)N2C[C@H]3CC[C@@H]2[C@@H]3N)cc2nc(-c3cc4ccccc4n3CC3CC3)n(Cc3cnn(C)c3)c12` [Example 242, (1R,4R,7R)-2-{2-[1-(cyclopropylmethyl)-1H-indol-2-yl]-7-methoxy-1-[(1-methyl-1H-pyrazol-4-yl)methyl]-1H-1,3-benzodiazole-5-carbonyl}-2-azabicyclo[2.2.1]heptan-7-amine], the figure is 41 nM; as for `COc1cc(C(=O)N2CC3CCC2[C@@H]3N)cc2nc(-c3cc4ccccc4n3CC3CC3)n(Cc3cnn(-c4cnc(C#N)c(F)c4)c3)c12` (stereo partly drawn) [Example 394, 5-[4-({5-[(7R)-7-amino-2-azabicyclo[2.2.1]heptane-2-carbonyl]-2-[1-(cyclopropyimethyl)-1H-indol-2-yl]-7-methoxy-1H-1,3-benzodiazol-1-yl}methyl)-1H-pyrazol-1-yl]-3-fluoropyridine-2-carbonitrile], 50 nM; as for `COc1cc(C(=O)N2CC3CCC2[C@@H]3N)cc2nc(-c3cc4ccccc4n3CC3CC3)n(CC3CN(C(=O)Nc4ccccc4)C3)c12` (stereo partly drawn) [Example 472, 3-({5-[(7R)-7-amino-2-azabicyclo[2.2.1]heptane-2-carbonyl]-2-[1-(cyclopropylmethyl)-1H-indol-2-yl]-7-methoxy-1H-1,3-benzodiazol-1-yl}methyl)-N-phenylazetidine-1-carboxamide], 75 nM.

Turning to `COc1cc(C(=O)N2C[C@H]3CC[C@@H]2[C@@H]3N)cc2nc(-c3cc4ccccc4n3CC3CC3)n(CC3CN(C(=O)c4cccc(F)c4)C3)c12` [Example 169, (1R,4R,7R)-2-{2-[1-(cyclopropylmethyl)-1H-indol-2-yl]-1-{[1-(3-fluorobenzoyl)azetidin-3-yl]methyl}-7-methoxy-1H-1,3-benzodiazole-5-carbonyl}-2-azabicyclo[2.2.1]heptan-7-amine], the IC50 amounted to 33 nM. In the case of `COc1cc(C(=O)N2CC3CCC2[C@@H]3N)cc2nc(-c3cc4ccccc4n3CC3CC3)n(CC3CN(C(=O)c4ccsc4)C3)c12` (stereo partly drawn) [Example 416, (7R)-2-{2-[1-(cyclopropylmethyl)-1H-indol-2-yl]-7-methoxy-1-{[1-(thiophene-3-carbonyl)azetidin-3-yl]methyl}-1H-1,3-benzodiazole-5-carbonyl}-2-azabicyclo[2.2.1]heptan-7-amine], the IC50 was 10 nM. Take `COc1cc(C(=O)N2CC3CCC2[C@@H]3N)cc2nc(-c3cc4cccnc4n3CC3CC3)n(CC3CCN(c4cnc(C#N)nc4)CC3)c12` (stereo partly drawn) [Example 221, 5-[4-({5-[(1R,4R.,7R)-7-amino-2-azabicyclo[2.2.1]heptane-2-carbonyl]-2-[1-(cyclopropylmethyl)-1H-pyrrolo[2,3-b]pyridin-2-yl]-7-methoxy-1H-1,3-benzodiazol-1-yl}methyl)piperidin-1-yl]pyrimidine-2-carbonitrile]: the IC50 amounted to 96 nM. The figure for `CCc1ccccc1-c1nc2cc(C(=O)N3CC4CCC3[C@@H]4N)cc(OC)c2n1CC1CN(c2cncc(C)c2)C1` (stereo partly drawn) [Example 323, (1R,4R,7R)-2-[2-(2-ethytphenyl)-7-methoxy-1-{[1-(5-methylpyridin-3-yl)azetidin-3-yl]methyl}-1H-1,3-benzodiazole-5-carbonyl]-2-azabicyclo[2.2.1]heptan-7-amine] is 2990 nM; for `COc1cc(C(=O)N2CC3CCC2[C@@H]3N)cc2nc(-c3cc4ccccc4n3CC3CC3)n(CC3CN(C(=O)c4cncs4)C3)c12` (stereo partly drawn) [Example 448, (7R)-2-{2-[1-(cyclopropylmethyl)-1H-indol-2-yl]-7-methoxy-1-{[1-(1,3-thiazole-5-carbonyl)azetidin-3-yl]methyl}-1H-1,3-benzodiazole-5-carbonyl}-2-azabicyclo[2.2.1]heptan-7-amine] it is 44 nM.
